Values belong to the compound of their own block, whether it stands above or below them.
Tests used:
Type in all cases: physicochemical
[1] = IG (lipid-mRNA adduct impurity) in binary mixtures of RNA and Compound III, ion pair reversed phase HPLC; conditions: for level of IG compared to control binary mixtures: 1 mM agent; for initial rate of IG formation: 5 mM agent, Compound III binaries
From the text: To detect and quantify the amount of IG present in LNP formulations comprising polynucleotides and lipid, a protocol was developed (FIG. 2) that included (1) extraction of the polynucleotide molecules (e.g. precipitation, liquid: liquid extraction); (2) assessment of integrity (e.g. purity, length) of the isolated polynucleotides by known methods (e.g. fragment analyzer, gel electrophoresis); and (3) analysis of the isolated polynucleotides by HPLC.
(§1) RNA was extracted from the LNP formulation by precipitation in ammonium acetate in isopropanol; resuspended in water to target a final RNA concentration of 0.1 mg/mL; and assessed by fragment analyzer capillary electrophoresis and ion pair reversed phase HPLC (performed on a Thermo DNApac RP 100×2.1 mm column at 65° C., with mobile phases containing 50 mM dibutylammonium acetate and 100 mM triethylammonium acetate in water and acetonitrile). Elution with an acetonitrile gradient provided an RNA separation primarily driven by mRNA length and sensitive to any added hydrophobic elements. Two prominent peaks were apparent on the HPLC chromatogram (FIG. 2), including a “main peak” comprising non-adduct mRNA and an “IG” peak comprising mRNA with one or more covalent modifications. The mass fraction of RNA containing at least one lipid adduct was determined by integrating the area under the curve (AUC) of all RNA peaks (including products shorter than the full-length product, the full-length product, and the hydrophobic modified RNA) and taking the late-eluting region as an area percent of the total peak area.
Compound III was dissolved in ethanol at a concentration of 4 mg/mL, and the RNA diluted in sodium acetate buffer pH 5.5; the RNA and lipids were then mixed in 25% ethanol. Samples were held at 25° C., and the RNA was periodically extracted by precipitation in isopropanol and analyzed by ion pair reversed phase (FIGS. 5 and 6A, data marked by *).

[2] = IG in Compound III LNPs buffered with PBS or Tris
[3] = IG in binary mixtures of RNA and Compound VI, ion pair reversed phase HPLC; conditions: control binary mixture
Experimental: as §1
To determine if treatment with reducing agents or anti-oxidants confers reductions in the percentage of IG formed in binary mixtures of RNA and Compound VI, binary mixtures were prepared with RNA and Compound VI in which the RNA component was prepared with select reducing agents at 5 mM concentration and the percentage of IG in the resulting binary mixtures was quantified according to the protocol detailed in Example 1. The control binary mixtures of RNA and Compound VI contained IG at ˜55 percent after 1 day, ˜70 percent after 2 days, and ˜80 percent after 13 days. In contrast, treatment of binary mixtures of RNA and Compound VI with select reducing agents conferred IG at ˜45 percent after 1 day, ˜55% after 2 days, and ˜60-70% after 13 days (FIG. 17).

[4] = IG in Compound VI LNPs stored in PBS or Tris; conditions: 20 mM Tris, 8% sucrose, pH 8 vs 1xPBS pH 7.2, stored at 5 C

Compound: O=S([O-])S(=O)(=O)[O-].[K+].[K+] [potassium metabisulfite]
level of IG compared to control binary mixtures ([1]; 25 C, after 18 hours): reduced levels of IG | initial rate of IG formation [1]: effective at eliminating the fast initial rate of IG formation

Compound: CCCCCCCCCCCOC(=O)CCCCCN(CCO)CCCCCCCC(=O)OC(CCCCCCCC)CCCCCCCC [Compound III, heptadecan-9-yl 8-((2-hydroxyethyl)(6-oxo-6-(undecyloxy)hexyl)amino)octanoate]
IG formation over time ([1]; chromatographically purified Compound III, up to 99% purity, no detectable N-oxide): still formed IG over time | percentage of IG ([1]; control binary mixture (Example 6), stored at 25 C, after 1 day): ~15% | percentage of IG ([1]; control binary mixture (Example 6), stored at 25 C, after 3 days): ~35% | percentage of IG ([1]; control binary mixture (Example 6), stored at 25 C, after 7 days): ~40% | percentage of IG ([1]; control binary mixture (Example 11), 25 C, after 18 hours): ~20% | percentage of IG ([1]; control binary mixture without agent (Example 7), 25 C, after 18 hours): ~35% | percentage of IG ([1]; control binary mixture without agent (Example 7), after 13 days at 25 C): ~45% | percentage of IG ([1]; control binary mixture, Compound III not pre-treated (Example 5), after 0 days): ~10% | percentage of IG ([1]; control binary mixture, Compound III not pre-treated (Example 5), after 5 days): ~40% | percentage of IG ([1]; control binary mixture, Compound III not pre-treated (Example 5), after 25 days): ~45% | percentage of IG, Tris compared to PBS ([2]; 100 mM Tris-HCl pH 7.4 vs 1xPBS): lower | percentage of IG over time ([2]; buffered with Tris (100 mM Tris-HCl pH 7.4), stored at 5 C or 20 C): around 10%

Compound: O=C([O-])CS.[Na+] [sodium thioglycolate]
level of IG compared to control binary mixtures ([1]; 25 C, after 18 hours): reduced levels of IG

Compound: O=C(O)CCP(CCC(=O)O)CCC(=O)O [TCEP, tris(2-carboxyethyl)phosphine]
level of IG compared to control binary mixtures ([1]; 25 C, after 18 hours): reduced levels of IG

Compound: Clc1ccc(C(c2ccc(Cl)cc2)C(Cl)(Cl)Cl)cc1 [DDT, dichlorodiphenyltrichloroethane]
level of IG compared to control binary mixtures ([1]; 25 C, after 18 hours): reduced levels of IG

Compound: CCCCCCCCCN(CCCCCCCCC)CCN(CCCCCCCCC)CC(=O)N1CCN(C(=O)CN(CCCCCCCCC)CCCCCCCCC)CC1 [Compound VI]
percentage of IG ([3]; after 1 day): ~55% | percentage of IG ([3]; after 2 days): ~70% | percentage of IG ([3]; after 13 days): ~80% | percentage of IG, Tris compared to PBS [4]: lower

Compound: O=S([O-])([O-])=S.[Na+].[Na+] [sodium thiosulfate]
level of IG compared to control binary mixtures ([1]; 25 C, after 18 hours): reduced levels of IG

Compound: O=S([O-])S(=O)(=O)[O-].[Na+].[Na+] [sodium metabisulfite]
initial rate of IG formation [1]: effective at eliminating the fast initial rate of IG formation | percentage of IG ([1]; higher concentrations of agent before formulation, removed by dialysis with 20 mM Tris, t=0 h and 24 hours): reduced

Now from value to compound, other results behind:

level of IG compared to control binary mixtures ([1]; 25 C, after 18 hours): reduced levels of IG
Compound: O=C(O)CCCC[C@@H]1CCSS1 (racemic) [lipoic acid]

level of IG compared to control binary mixtures ([1]; 25 C, after 18 hours): reduced levels of IG
Compound: N[C@@H](CCC(=O)N[C@@H](CS)C(=O)NCC(=O)O)C(=O)O [glutathione]

level of IG compared to control binary mixtures ([1]; 25 C, after 18 hours): reduced levels of IG
Compound: NCCSSCCN [cystamine]

level of IG compared to control binary mixtures ([1]; 25 C, after 18 hours): reduced levels of IG
Compound: N[C@@H](CCS)C(=O)O [homo cysteine, homocysteine]

level of IG compared to control binary mixtures ([1]; 25 C, after 18 hours): reduced levels of IG
Compound: CC(=O)N[C@@H](CS)C(=O)O [N-acetyl cysteine]
initial rate of IG formation [1]: effective at eliminating the fast initial rate of IG formation

level of IG compared to control binary mixtures ([1]; 25 C, after 18 hours): reduced levels of IG
Compound: O[C@H](CS)[C@@H](O)CS [DTE, dithioerythritol]

level of IG compared to control binary mixtures ([1]; 25 C, after 18 hours): reduced levels of IG
Compound: [BH4-].[Na+] [sodium borohydrate]

level of IG compared to control binary mixtures ([1]; 25 C, after 18 hours): reduced levels of IG
Compound: O[C@H](CS)[C@H](O)CS [DTT, dithiothreitol]

Reference: patent US12508278B2, “Lipid nanoparticle compositions and methods of formulating the same” (ModernaTX, Inc., priority 2021, dated 2025)
